Test results taken from article PMC5635026, “Homo-PROTACs: bivalent small-molecule dimerizers of the VHL E3 ubiquitin ligase to induce self-degradation” (Nature Communications, 2017).

Legend:
HIF-1α = assay: TMT MS proteomics in HeLa cells, HIF-1α level; format: cell-based, Human; details: 1 µM, 10 h
Procedure: MS proteomics. Sample preparation. HeLa cells were seeded at 5 × 10^6 on a 10 cm plate 16 h before treatment. […] Cells were incubated at 37 °C and 5% CO2 for 10 h before harvesting. Cells were placed on ice and medium was removed and cells were washed twice with cold PBS. Cells were lysed in 0.5 ml of 100 mM Tris pH 8.0, 4% (w/v) SDS supplemented with protease inhibitor cocktail (Roche). The lysate was pulse sonicated briefly and then centrifuged at 17,000 × g for 15 min at 4 °C. The supernatant fraction of cell extract was snap-frozen in liquid nitrogen and stored in −80 °C freezer. Further sample processing, digestion, desalting, labeling and fractionation were performed as previously described.
nLC-MS/MS analysis. The TMT 10plex fractions were first analyzed as previously described. Briefly, the TMT 10plex fractions were analyzed sequentially on a Q Exactive HF Hybrid Quadrupole-Orbitrap Mass Spectrometer (Thermo Scientific) coupled to an UltiMate 3000 RSLCnano UHPLC system (Thermo Scientific) and EasySpray column (75 μm × 50 cm, PepMap RSLC C18 column, 2 μm, 100 Å, Thermo Scientific). The MS2 isolation window was set to 0.4 Da and the resolution set at 120,000. MS2 resolution was set at 60,000. […] After the first analysis, the TMT labeled fractions were re-analyzed on the Q-Exactive HF using the same instrument settings and a target list generated from a theoretical trypsin digest of VHL. […]

[1] = system: Hypoxia response element (HRE)-luciferase reporter HeLa-HRE cells; assay: HRE-luciferase reporter assay in HeLa-HRE cells; format: cell-based, Human; details: different concentrations and times
Procedure: Luciferase assay. Assay was performed as described. Briefly, cells (HeLa and U2OS) stably expressing an HRE-luciferase reporter were treated for the indicated times with compounds. Cells were harvested in passive lysis buffer (Promega) and subjected to three freeze-thaw cycles. The soluble lysate fraction was used for assays, performed according to the manufacturer’s instructions (Promega) using a Berthold Lumat LB 9507 Luminometer. Results were normalized for protein concentration, and reported as mean ± s.e.m. from three biological replicates.

V30CB = target: T1, V30CB (Homo sapiens, UniProt P40337); assay: Size-exclusion chromatography (SEC) of complex formation with V30CB; format: binding
T1 construct: N-terminally His6-tagged VHL (1–213), ElonginC (17–112) and ElonginB (1–104) were co-expressed; His6 (N, cleaved yes); made in house; host or cells: Escherichia coli BL21(DE3)
T1 sequence (P40337 whole entry): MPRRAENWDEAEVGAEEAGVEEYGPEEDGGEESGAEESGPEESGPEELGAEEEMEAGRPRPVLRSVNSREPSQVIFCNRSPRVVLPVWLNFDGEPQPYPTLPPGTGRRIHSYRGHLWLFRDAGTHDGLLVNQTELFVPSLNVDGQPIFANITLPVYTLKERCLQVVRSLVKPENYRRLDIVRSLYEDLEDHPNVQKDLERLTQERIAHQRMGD
T1 sequence (Q15369 17-112 partner limits assumed): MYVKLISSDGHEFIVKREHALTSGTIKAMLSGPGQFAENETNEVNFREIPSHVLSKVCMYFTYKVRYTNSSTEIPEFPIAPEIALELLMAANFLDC
T1 sequence (Q15370 1-104 partner limits assumed): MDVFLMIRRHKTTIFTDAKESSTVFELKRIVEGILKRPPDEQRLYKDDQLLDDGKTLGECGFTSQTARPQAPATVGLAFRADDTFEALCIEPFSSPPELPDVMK
Procedure: Protein expression and purification. Human proteins VHL (UniProt accession number: P40337), ElonginC (Q15369), and ElonginB (Q15370) were used for all protein expression. The short-isoform-containing VCB complex (V19CB) was expressed, purified and stored as described previously. For expression of the long-isoform-containing VCB complex (V30CB), N-terminally His6-tagged VHL (1–213), ElonginC (17–112) and ElonginB (1–104) were co-expressed in Escherichia coli BL21(DE3) at 20 °C for 18 h using 0.5 mM isopropyl β-D-1-thiogalactopyranoside (IPTG). E. coli cells were resuspended in binding buffer (50 mM HEPES, pH 8.0, 500 mM NaCl, 10 mM imidazole and 5 mM β-mercaptoethanol), lysed using a pressure cell homogenizer (Stansted Fluid Power), and lysate clarified by centrifugation. The supernatant was loaded onto a HisTrap FF affinity column (GE Healthcare) equilibrated with binding buffer, and bound protein was eluted using an imidazole gradient. […]
Size-exclusion chromatography (SEC). […] The oligomeric state of the VCB complex in solution was analyzed by gel filtration in a buffer containing 20 mM Bis-Tris (pH 7), 150 mM NaCl and 1 mM 1,4-dithiothreitol (DTT) using a Superdex 200 Increase 10/300 GL column (GE Healthcare) calibrated with globular proteins of known molecular weight (GE Healthcare, 28-4038-41/42). […] Peak elution was monitored using ultraviolet absorbance at 280 nm.

complex formation in SEC with V30CB (V30CB) | SMILES | protein levels of HIF-1α relative to DMSO (HIF-1α) | luciferase activity relative to DMSO control [1]
– | Cc1ncsc1-c1ccc(CNC(=O)[C@@H]2C[C@@H](O)CN2C(=O)[C@@H](NC(=O)COCCOCCOCCOCC(=O)N[C@H](C(=O)N2C[C@H](O)C[C@H]2C(=O)NCc2ccc(-c3scnc3C)cc2)C(C)(C)C)C(C)(C)C)cc1 [CM09, N ^1 ,N ^14-bis((S)-1-((2S,4R)-4-hydroxy-2-((4-(4-methylthiazol-5-yl)benzyl)carbamoyl)pyrrolidin-1-yl)-3,3-dimethyl-1-oxobutan-2-yl)-3,6,9,12-tetraoxatetradecanediamide] | small decrease | –
Formation of a 2:1 complex | Cc1ncsc1-c1ccc(CNC(=O)[C@@H]2C[C@@H](O)CN2C(=O)[C@@H](NC(=O)COCCOCCOCCOCCOCCOCC(=O)N[C@H](C(=O)N2C[C@H](O)C[C@H]2C(=O)NCc2ccc(-c3scnc3C)cc2)C(C)(C)C)C(C)(C)C)cc1 [CM11, N ^1 ,N ^20-bis((S)-1-((2S,4R)-4-hydroxy-2-((4-(4-methylthiazol-5-yl)benzyl)carbamoyl)pyrrolidin-1-yl)-3,3-dimethyl-1-oxobutan-2-yl)-3,6,9,12,15,18-hexaoxaicosanediamide] | – | no increase
